Reference: patent US20260207625A1, “New medical use of 3a-ethynyl-3ß hydroxyandrostan-17-one oxime” (priority 2022, published 2026)

Columns and labels:
[1] = system: 6-OHDA rats treated with L-DOPA; assay: L-dopa Induced Dyskinesia (LID) rat model, Abnormal Involuntary Movements (AIMs); assay type: in vivo; conditions: 6 weeks of daily L-DOPA, 3 weeks of oral golexanolone, compared to group receiving only L-DOPA
Description: The ability of golexanolone to reduce or eliminate L-dopa Induced Dyskinesia (LID) was analyzed. This test is described in FIG. 14.
L-dopa Induced Dyskinesia (LID) was induced in a rat model described by Loiodice et al in ACS Chem Neurosci. 2018 Apr. 18; 9(4): pp. 762-772. Abnormal Involuntary Movements (AIM) was measured.
Rats positive in the apomorphine test received daily L-DOPA treatment starting 4 weeks after surgery and oral golexanolone treatment starting 7 weeks after surgery.
The experiment included the following groups: • 1) 6-OHDA rats treated with L-DOPA and receiving vehicle; • 2) 6-OHDA rats treated with golexanolone and treated with L-DOPA (n=12 per group). The appearance of a variety of AIMs were analyzed after 6 weeks of daily L-DOPA injections, and 3 weeks of golexanolone treatment, as described in Lundblad M et al; Eur J Neurosci. 2002 January; 15(1): pp. 120-132, and Loiodice et al in ACS Chem Neurosci. 2018 Apr. 18; 9(4): pp. 762-772.
Axial AIMs, limb AIMs, orolingual AIMs and locomotive AIMs were evaluated. One hour after the daily dose of golexanolone, L-DOPA was injected and AIMs were analyzed every 20 minutes for a total of three hours, as shown in FIG. 15.
As shown in this graph, there were less AIMs in the group of animals treated with golexanolone compared to the group who received only L-DOPA.

6-OHDA rat model [2] = assay: Sucrose preference test (anhedonia, depression); assay type: in vivo; conditions: 6-OHDA rats; 50 mg/kg daily intragastric; 7 weeks after surgery, 3 weeks of treatment
Excerpt: (§1) The unilaterally 6-hydroxydopamine (6-OHDA) rat model according to Carvalho M et al. in Molecular Neurodegeneration 2013, 8:14; pp. 1-11, was used.
(§2) Under isoflurane (5% induction and then 2%) anesthesia the animals were placed on a stereotaxic frame with non-traumatic ear bars (Stoelting, USA), and unilaterally injected (left hemisphere) using an 30-gauge needle Hamilton syringe (Hamilton Company, Switzerland), with either vehicle (sham group, n=20) or 6-OHDA hydrochloride (Sigma, USA) (6-OHDA group, n=40) directly into the medial forebrain bundle (coordinates related to Bregma, AP=−4.4 mm; ML=−1.0 mm; DV=−7.8 mm; according to (Paxinos G, Watson C. The Rat Brain in Stereotaxic Coordinates. 4. San Diego, USA: Academic; 1998).
(§3) At a rate of 1 μl/min, sham animals received 2 μl of 0.2 mg/ml ascorbic acid in 0.9% NaCl, and 6-OHDA animals were injected with 2 μl 6-OHDA hydrochloride (4 μg/μl) with 0.2 mg/ml ascorbic acid in 0.9% NaCl. After injection the syringe was left in place for 10 minutes to allow diffusion.
(§4) Rats positive in the apomorphine-induced rotation test (20 animals) were included in the study, together with 20 sham-operated controls. Golexanolone treatment (50 mg/kg, daily, intragastric) and vehicle treatment as negative controls started 4 weeks after surgery. […]

6-OHDA rat model [3] = assay: Motor coordination, Motorater test (horizontal ladder); assay type: in vivo; conditions: 6-OHDA rats; 50 mg/kg daily intragastric; 7 weeks after surgery, 3 weeks of treatment; versus control rats
Excerpt: as §1, §2
At a rate of 1 μl/min, sham animals received 2 μl of 0.2 mg/ml ascorbic acid in 0.9% NaCl, and 6-OHDA animals were injected with 2 μl 6-OHDA hydrochloride (4 μg/μl) with 0.2 mg/ml ascorbic acid in 0.9% NaCl. […]
Motor coordination was tested with the Motorater test (Zörner B, Filli L, Starkey M L, Gonzenbach R, Kasper H, Röthlisberger M, et al. Profiling locomotor recovery: comprehensive quantification of impairments after CNS damage in rodents. Nat Methods. 2010; 7(9): pp. 701-708). […] The performance is recorded from the bottom by a mobile high-speed camera at 200 frames per second. Failures to set a foot on the ladder stairs are quantified.

α-synuclein = α-synuclein content in striatum by Western blot; assay type: in vivo, rat; conditions: 6-OHDA rats treated with golexanolone, 10 weeks after surgery, mean±SEM, untreated 6-OHDA rats 195±35%
Excerpt: as §1, §2
(§5) At a rate of 1 μl/min, sham animals received 2 μl of 0.2 mg/ml ascorbic acid in 0.9% NaCl, and 6-OHDA animals were injected with 2 μl 6-OHDA hydrochloride (4 μg/μl) with 0.2 mg/ml ascorbic acid in 0.9% NaCl. After injection the syringe was left in place for 10 minutes to allow diffusion. […]
α-synuclein content was analyzed by Western blot. […] Membranes were scanned using the ScanJet 5300C (Hewlett-Packard, Amsterdam, the Netherlands) and band intensities were quantified using Alpha Imager 2200 version 3.1.3 (Alpha Innotech Corporation). Results were expressed as percentage of shams. […]

6-OHDA rat model [4] = assay: CatWalk test, initial dual stance; assay type: in vivo; conditions: 6-OHDA rats; 50 mg/kg daily intragastric
Excerpt: as §1, §2, §5
(§6) The CatWalk™ system measures various aspects of locomotor pattern. Based on the position, pressure, and surface area of each footfall, multiple parameters are calculated. […] Paw print designations were assigned and data analysed using the CatWalk analysis software (v 7.1)
Initial dual stance was evaluated in the catwalk test. […]

astrocytes = assay: Astrocytes activation in striatum (GFAP stained area); assay type: in vivo, rat; conditions: 6-OHDA rats treated with golexanolone; 5 weeks after surgery; mean±SEM; untreated 6-OHDA rats 123±10%
Excerpt: as §1, §2, §3
(§7) Rats positive in the apomorphine-induced rotation test (20 animals) were included in the study, together with 20 sham-operated controls. […]
Astrocytes activation was assessed at 5 weeks after surgery, by measuring the total GFAP stained area with Image J software. Results were expressed as percentage of shams.
Astrocyte activation in the striatum was analysed by immunohistochemistry. […]

6-OHDA rat model [5] = assay: CatWalk test, locomotor gait swing; assay type: in vivo; conditions: 6-OHDA rats; 50 mg/kg daily intragastric; 7 weeks after surgery, 3 weeks of treatment
Excerpt: as §1, §2, §5, §6
Locomotor gait swing was evaluated in the catwalk test. […]

[6] = system: tyrosine hydroxylase (TH); assay: Tyrosine hydroxylase content in striatum, immunohistochemistry; assay type: in vivo, rat; conditions: 6-OHDA rats treated with golexanolone; 5 weeks after surgery; mean±SEM; untreated 6-OHDA rats 36±4%
Excerpt: as §1, §2, §3, §4
Tyroxine hydroxylase (TH) was analysed according to Heo et al (Curr Biol. 2020 Jan. 20; 30(2): pp. 276-291). […]

6-OHDA rat model [7] = assay: Fatigue in treadmill test, 6-OHDA rats; assay type: in vivo; conditions: golexanolone 50 mg/kg daily intragastric, 5 weeks after surgery, 9 days of treatment
Excerpt: A 6-OHDA rat model as described by Heo et al. (Curr Biol. 2020 Jan. 20; 30(2): pp. 276-291) and by Carvalho et al. (Mol. Neurodegener. 2013, 8: 14: Behavioral characterization of the 6-hydroxidopamine model of Parkinson's disease and pharmacological rescuing of non-motor deficits) is used.
as §1
Eight week old Wistar-Han male rats (56 animals) (Charles River, Barcelona) were housed, two per cage, under standard laboratory conditions: 12 hour light-dark cycle, 22° C. room temperature, 55% relative humidity, food and water available ad libitum. All manipulations were done in accordance with the local regulations (European Union Directive 2010/63/EU). […]
Fatigue was evaluated in a treadmill consisting of a motorized conveyor belt divided into two parallel sectors, each with an electrified grid. […] The value recorded during the last 15 minutes of each test (and the times it falls on the grid) is recorded. […]

6-OHDA rat model [8] = assay: Anxiety, open arena test; assay type: in vivo; conditions: 6-OHDA rats; 50 mg/kg daily intragastric; 5 weeks after surgery, 10 days of treatment
Excerpt: as §1, §2, §3, §7
Anxiety was evaluated in an open arena during five minutes by measuring the time that the rat remains in the central zone, instead of close to the walls of the box, where the rats feel safer. […]

6-OHDA rat model [9] = assay: Object location memory test (OLM); assay type: in vivo; conditions: 6-OHDA rats; 50 mg/kg daily intragastric; 6 weeks after surgery, 2 weeks of treatment
Excerpt: as §1, §2, §5
The object location memory test (OLM) evaluates spatial location memory. […] The time exploring each object is analyzed. The discrimination ratio is calculated: (Time exploring new object location-time exploring old located object)/total time exploring the objects. […]

microglia = assay: Microglia activation in striatum (perimeter of Iba1 stained cells); assay type: in vivo, rat; conditions: 6-OHDA rats treated with golexanolone; 5 weeks after surgery; mean±SEM; untreated 6-OHDA 217±8, shams 254±1
Excerpt: as §1, §2, §3, §7
In this Parkinson's Disease test model, microglia activation was analyzed by measuring the perimeter of individual Iba1 stained cells with IpWin2 software at 5 weeks after surgery.

## C#C[C@]1(O)CC[C@@]2(C)C(CC[C@@H]3[C@@H]2CC[C@]2(C)/C(=N/O)CC[C@@H]32)C1 (stereo partly drawn) [golexanolone, 3α-ethynyl-3β-hydroxyandrostan-17-one oxime]
[1]
  All AIMs (axial, limb, orolingual and locomotive) during three hours: less AIMs
6-OHDA rat model [2]
  Depression (anhedonia, sucrose preference): improves depression
6-OHDA rat model [3]
  Errors crossing the horizontal ladder (failures to set a foot on the ladder stairs): made less errors
α-synuclein
  Level of α-synuclein in the injured striatum: 99±9 % of shams
6-OHDA rat model [4]
  Initial dual stance in the CatWalk test: improves initial dual stance
astrocytes
  Astrocyte activation: total GFAP stained area in the injured striatum: 92±4 % of shams
6-OHDA rat model [5]
  Locomotor gait swing in the CatWalk test: improved swing
[6]
  TH staining in the striatum: 62±11 % of shams
6-OHDA rat model [7]
  Fatigue (time in the treadmill, time in shock): improved fatigue
6-OHDA rat model [8]
  Anxiety (time in the central zone of open arena): improves anxiety
6-OHDA rat model [9]
  Object location memory (discrimination ratio): improves object location memory
microglia
  Microglia activation: perimeter of individual Iba1 stained cells in the injured striatum: 250±8 μm
